Results reported in patent US20110015223A1, “Compounds and methods for treatment of cancer-related anemia” (FibroGen, Inc., priority 2006, published 2011).
Marks after values point to notes of the source that are not given here.

Assays:
[1] = test system: human H-460 lung cancer tumor-bearing nude mice; test: Blood parameters in nude mice with subcutaneous H-460 lung tumors (anemia of cancer, Example 1); type: in vivo; conditions: M, W, F x 4, subcutaneous H-460 tumors, study endpoint
Excerpt: (§1) Immuno-compromised athymic CD-1 nu/nu nude mice males (5-6 weeks old) were used in this study (Charles River Laboratories, Wilmington, Mass.). Animals were maintained in a HEPA-filtered environment during the experimental period. Cages, food, and bedding were autoclaved. Animal diets were obtained from Harlan Teklad (Madison, Wis.).
Compounds of the invention were pre-formulated in an aqueous vehicle consisting of 0.1% (w/w) Polysorbate 80 (JT Baker) and 0.5% (w/w) high viscosity carboxymethyl cellulose sodium (Spectrum) to achieve a final 10 ml/kg dosing (oral gavage).
The human H-460 lung cancer cell line used was obtained from the National Cancer Institute. […] The resulting tumor was maintained in nude mice subcutaneously as tumor stock prior to use. Tumor implantation was performed when the stock tumors were in log phase of growth. […] Necrotic tissues were dissected away and viable tissues were cut into 1-2 mm^2 pieces. Tumor fragments were then transplanted subcutaneously to the right flank of the nude mice.
Treatment (administration of compounds of the present invention) was started when the inoculated tumors reached approximately 100 mm^3, and continued for four weeks.
These include red blood cell counts, hemoglobin, hematocrit, mean corpuscular volume, mean corpuscular hemoglobin, mean corpuscular hemoglobin concentration, red blood cell distribution, reticulocytes, reticulocyte counts, and immature reticulocyte fraction.

[2] = test system: MDA-MB-435-GFP breast tumor-bearing female CD-1 nude mice; conditions: in words (FIG. 1); 20 mg/kg or 60 mg/kg; 33 days treatment; MDA-MB-435-GFP breast tumors
Protocol: The effectiveness of methods and compounds of the present invention at treating or preventing the development of anemia of cancer was examined as follows. In this study, experiments were performed essentially as described above in Example 1, with the following modifications. Tumors used in this study were MDA-MB-435-GFP breast tumors, and surgical orthotopic tumor fragment implantation was done directly into breast tissue of female CD-1 nude animals. The number of animals in each group was 15. […] After mean tumor volume in the vehicle control group exceeded 1 cm^3, animals were sacrificed (33 days treatment) and hematocrit was measured.

[3] = test system: OVCAR3 tumor-bearing female CB.17 SCID mice; test: Hematocrit in OVCAR3 ovarian tumor-bearing SCID mice (Example 5, FIG. 2); type: in vivo; conditions: in words (FIG. 2); 60 mg/kg; 29 days treatment
Excerpt: Tumors used in this study were OVCAR3 ovarian tumors. OVCAR3 tumor fragments (1 mm^3) were implanted subcutaneously into the flanks of female CB.17 SCID mice. The number of animals in each treatment group was 10. […] After 29 days treatment, animals were sacrificed and blood was collected for determination of hematocrit (HCT).

[4] = test system: H-460-GFP human lung tumor-bearing nude mice (orthotopically xenografted); test: Plasma erythropoietin (EPO) by ELISA in nude mice with orthotopic H-460-GFP lung tumors (Example 3); type: in vivo; conditions: orthotopic H-460-GFP tumors; for plasma EPO levels compared to vehicle-treated control animals: in words, Compound A 20 or 60 mg/kg, Compounds C, D, E 20 mg/kg
Protocol: (§2) The effectiveness of administration of compounds of the present invention at preventing the development of anemia of cancer or at treating anemia of cancer in an animal model of cancer was examined. […] Genetically-engineered tumors of GFP-transfected H-460 cells were used in this study. The human H-460 lung cancer cell line used was obtained from the National Cancer Institute. […] Compounds were administered three-times per week
Plasma was isolated from these animals 6 hours following administration of the final dose of compound. Plasma erythropoietin (EPO) levels were determined by ELISA.

[5] = test system: A549 human lung tumor-bearing nude mice; test: Plasma erythropoietin (EPO) by ELISA in nude mice with subcutaneous A549 lung tumors (Example 2); type: in vivo; conditions: for Mean [EPO]: four weeks, plasma 6 hours after final dose; for plasma EPO levels compared to vehicle-treated control animals: in words, Compound A 20 or 60 mg/kg, Compound C 20 mg/kg, Compound D 20 or 60 mg/kg as worded in text
Excerpt: as §1
Compounds of the invention were formulated in an aqueous vehicle consisting of 0.1% (w/w) Polysorbate 80 (JT Baker) and 0.5% (w/w) high viscosity carboxymethyl cellulose sodium (Spectrum) to achieve a final 10 ml/kg dosing (oral gavage).
The A549 human lung cancer cell line was used. This cell line has been characterized extensively.
A stock tumor was developed by subcutaneoulsy injecting an A549 cell suspension into stock mice. The resulting tumor was maintained subcutaneously as tumor stock prior to use. Tumor implantation was performed when the stock tumors were in log phase of growth. […] Necrotic tissues were dissected away and viable tissues were cut into 1-2 mm^2 pieces. Tumor fragments were then transplanted subcutaneously to the right flank of the nude mice.
Administration of compounds of the present invention (administered three-times per week) was initiated when the inoculated tumors reached approximately 100 mm^3, and continued for four weeks thereafter.
Plasma was isolated from the animals 6 hours following administration of the final dose of compound. Plasma erythropoietin (EPO) levels were determined by ELISA.

[6] = test system: H-460-GFP human lung tumor-bearing nude mice (orthotopically xenografted); test: RBC, HGB and HCT in nude mice with orthotopic H-460-GFP lung tumors (Example 3); type: in vivo; conditions: 20 mg/kg three-times per week; whole blood 6 hours after final dose; orthotopic H-460-GFP tumors; mean +/- SD
Protocol: as §2
Whole blood was collected from these animals 6 hours following administration of the final dose of compound. Various measurable blood parameters indicative of erythropoiesis and treatment of anemia (red blood cell count, hemoglobin, and hematocrit) were analyzed.

[7] = 20 mg/kg oral gavage three-times per week
[8] = 20 mg/kg three-times per week, plasma 6 hours after final dose

Compound: O=C(O)CNC(=O)c1nc(Cl)c2ccccc2c1O [Cmpd A]
- Abs Retic, reticulocyte count ([1]; 20 mg/kg PO): 559
- HCT, hematocrit ([1]; 20 mg/kg PO): 40.4%
- HGB, hemoglobin ([1]; 20 mg/kg PO): 13.3 g/dL
- IRF, immature RET fraction ([1]; 20 mg/kg PO): 0.63
- MCH, mean corpuscular hemoglobin ([1]; 20 mg/kg PO): 15.1 pg
- MCHC, MCH concentration ([1]; 20 mg/kg PO): 33.1 g/dL
- RDW, RBC distribution width ([1]; 20 mg/kg PO): 21.3%
- RET, reticulocytes ([1]; 20 mg/kg PO): 6.4%
- Abs Retic, reticulocyte count ([1]; 60 mg/kg PO): 539
- HCT, hematocrit ([1]; 60 mg/kg PO): 39.5%
- HGB, hemoglobin ([1]; 60 mg/kg PO): 13.5 g/dL
- IRF, immature RET fraction ([1]; 60 mg/kg PO): 0.65
- MCH, mean corpuscular hemoglobin ([1]; 60 mg/kg PO): 15.6 pg
- MCHC, MCH concentration ([1]; 60 mg/kg PO): 34.2 g/dL
- RDW, RBC distribution width ([1]; 60 mg/kg PO): 23.6%
- RET, reticulocytes ([1]; 60 mg/kg PO): 6.5%
- hematocrit levels compared to non-treated control animals with cancer [2]: increased
- hematocrit levels in OVCAR3 tumor-bearing animals [3]: increased

Compound: rhEPO: recombinant human erythropoietin (EPO)
- Average [EPO] ([4]; rhEPO group, dose not given, plasma): 215 pg/mL

Compound: COc1ccc(Oc2ccc3c(O)c(C(=O)NCC(=O)O)ncc3c2)cc1 [Cmpd C, {[4-Hydroxy-7-(4-methoxy-phenoxy)-isoquinoline-3-carbonyl]-amino}-acetic acid]
- Abs Retic, reticulocyte count ([1]; 20 mg/kg PO): 457
- HCT, hematocrit ([1]; 20 mg/kg PO): 41.1%
- HGB, hemoglobin ([1]; 20 mg/kg PO): 14.0 g/dL
- IRF, immature RET fraction ([1]; 20 mg/kg PO): 0.56
- MCH, mean corpuscular hemoglobin ([1]; 20 mg/kg PO): 14.9 pg
- MCHC, MCH concentration ([1]; 20 mg/kg PO): 34.1 g/dL
- MCV, mean corpuscular volume ([1]; 20 mg/kg PO): 43.8 fL
- RBC, red blood cells ([1]; 20 mg/kg PO): 9.36e+06 µL⁻¹
- RDW, RBC distribution width ([1]; 20 mg/kg PO): 22.3%
- RET, reticulocytes ([1]; 20 mg/kg PO): 4.9%
- Mean [EPO] [5, 7]: 3581* pg/ml
- plasma EPO levels compared to vehicle-treated control animals [5]: increased
- Average [EPO] [4, 8]: 5898 pg/mL
- plasma EPO levels compared to vehicle-treated control animals [4]: elevated
- HCT [6]: 47.2 +/− 5.6%
- HGB [6]: 16.3 ± 1.6 g/dL
- RBC [6]: 9.8 +/− 1.1

Compound: C[C@H](NC(=O)c1ncc2cc(Oc3ccccc3)ccc2c1O)C(=O)O [Cmpd B, (S)-2-[(4-Hydroxy-7-phenoxy-isoquinoline-3-carbonyl)-amino]-propionic acid]
- Abs Retic, reticulocyte count ([1]; 6 mg/kg PO): 653
- HCT, hematocrit ([1]; 6 mg/kg PO): 37.7%
- HGB, hemoglobin ([1]; 6 mg/kg PO): 12.7 g/dL
- IRF, immature RET fraction ([1]; 6 mg/kg PO): 0.64
- MCH, mean corpuscular hemoglobin ([1]; 6 mg/kg PO): 14.6 pg
- MCHC, MCH concentration ([1]; 6 mg/kg PO): 33.8 g/dL
- MCV, mean corpuscular volume ([1]; 6 mg/kg PO): 43.2 fL
- RBC, red blood cells ([1]; 6 mg/kg PO): 8.71e+06 µL⁻¹
- RDW, RBC distribution width ([1]; 6 mg/kg PO): 21.4%
- RET, reticulocytes ([1]; 6 mg/kg PO): 7.5%
- Abs Retic, reticulocyte count ([1]; 20 mg/kg PO): 552
- HCT, hematocrit ([1]; 20 mg/kg PO): 37.7%
- HGB, hemoglobin ([1]; 20 mg/kg PO): 12.7 g/dL
- IRF, immature RET fraction ([1]; 20 mg/kg PO): 0.56
- MCH, mean corpuscular hemoglobin ([1]; 20 mg/kg PO): 14.5 pg
- MCHC, MCH concentration ([1]; 20 mg/kg PO): 33.7 g/dL
- MCV, mean corpuscular volume ([1]; 20 mg/kg PO): 43.0 fL
- RBC, red blood cells ([1]; 20 mg/kg PO): 8.78e+06 µL⁻¹
- RDW, RBC distribution width ([1]; 20 mg/kg PO): 21.7%
- RET, reticulocytes ([1]; 20 mg/kg PO): 6.3%

Compound: Cc1nc(C(=O)NCC(=O)O)c(O)c2ccc(Oc3ccccc3)cc12 [Cmpd D, [(4-Hydroxy-1-methyl-7-phenoxy-isoquinoline-3-carbonyl)-amino]-acetic acid]
- Mean [EPO] ([5]; 6 mg/kg oral gavage three-times per week): 455 pg/mL
- Mean [EPO] [5, 7]: 489 pg/mL
- plasma EPO levels compared to vehicle-treated control animals [5]: increased
- Average [EPO] [4, 8]: 2176 pg/mL
- plasma EPO levels compared to vehicle-treated control animals [4]: elevated
- HCT [6]: 45.6 +/− 1.8%
- HGB [6]: 15.4 ± 0.6 g/dL
- RBC [6]: 9.3 +/− 0.5
- hematocrit levels in OVCAR3 tumor-bearing animals [3]: increased
